Results as given in patent US8901301B2, “Pyrrolo[2,3-]pyridine kinase inhibitors” (Plexxikon Inc., priority 2009, dated 2014).

Tests used:
B-Raf V600E = molecular target: T1, B-Raf V600E (Homo sapiens, UniProt P15056, V600E); experiment: Raf biochemical kinase assay (biotin-MEK1 phosphorylation), B-Raf V600E; settings: 100 μM ATP
T1 construct: purchased Upstate Biotechnology
Procedure: (§1) Assays for biochemical and cell based activity are known in the art, for example, as described in PCT publication WO 2007/002433, the disclosure of which is hereby incorporated by reference as it relates to such assays. For example, the biochemical activity IC50 values are determined with respect to inhibition of A-Raf kinase activity, B-Raf kinase activity, c-Raf-1 kinase activity, or B-Raf V600E kinase activity, where inhibition of phosphorylation of a peptide substrate is measured as a function of compound concentration. Compounds to be tested are diluted in dimethyl sulfoxide to a concentration of 0.1 mM. These are serially diluted 15 μL into 30 μL of dimethyl sulfoxide seven times in 96 well plates for a total of 8 dilution points, and for each dilution point 1 μL is added to a well of an assay plate. Plates are prepared such that each well in a 384 well plate contains 1 μL of compound in 10 μL volume with 0.1 ng Raf enzyme (i.e. any of A-Raf, B-Raf, c-Raf-1 or B-Raf V600E, Upstate Biotechnology or prepared by methods known to one of skill in the art), 50 mM HEPES, pH 7.0, 50 mM NaCl, 2 mM MgCl2, 1 mM MnCl2, 0.01% Tween-20, 1 mM DTT, and 100 nM biotin-MEK1 as substrate. The reaction is started with addition of 10 μL of 200 μM ATP (i.e. final 100 μM ATP). After incubation of the kinase reaction for 45 minutes at room temperature, 5 μL/well of Stop Solution is added (25 mM Hepes pH 7.5, 100 mM EDTA, 0.01% BSA with donor beads (Streptavidin coated beads, Perkin Elmer), acceptor beads (Protein A coated, Perkin Elmer), and anti phosphor MEK1/2 antibody (CellSignal), each at final concentration 10 μg/mL). The plates are incubated for 3 hours at room temperature and read on Envision reader (Perkin Elmer). Phosphorylation of Mek1 results in binding of the anti-phosphor-MEK1/2 antibody and association of the donor and acceptor beads such that signal correlates with kinase activity. The signal vs. compound concentration is used to determine the IC50.

Kit = Kit (Homo sapiens, UniProt P10721); experiment: Biochemical inhibitory activity, other protein kinases: Kit; settings: for Kinase having IC50 of >1 μM: listing of the kinase means IC50 >1 μM
Src = Src (Homo sapiens, UniProt P12931); experiment: Biochemical inhibitory activity, other protein kinases: Src; settings: for Kinase having IC50 of <1 μM: listing of the kinase means IC50 <1 μM; for Kinase having IC50 of >1 μM: listing of the kinase means IC50 >1 μM
Btk = Btk (Homo sapiens, UniProt Q06187); experiment: Biochemical inhibitory activity, other protein kinases: Btk; settings: listing of the kinase means IC50 >1 μM
CYP1A2 = molecular target: T2, CYP1A2 (Homo sapiens, UniProt P05177); experiment: CYP inhibition (fluorescent substrate), CYP1A2; type: in vitro ADME; settings: substrate CEC; read-out: Cyp IC50 (μM) 1A2
T2 construct: purchased BD Biosciences
T2 sequence (P05177 1-516): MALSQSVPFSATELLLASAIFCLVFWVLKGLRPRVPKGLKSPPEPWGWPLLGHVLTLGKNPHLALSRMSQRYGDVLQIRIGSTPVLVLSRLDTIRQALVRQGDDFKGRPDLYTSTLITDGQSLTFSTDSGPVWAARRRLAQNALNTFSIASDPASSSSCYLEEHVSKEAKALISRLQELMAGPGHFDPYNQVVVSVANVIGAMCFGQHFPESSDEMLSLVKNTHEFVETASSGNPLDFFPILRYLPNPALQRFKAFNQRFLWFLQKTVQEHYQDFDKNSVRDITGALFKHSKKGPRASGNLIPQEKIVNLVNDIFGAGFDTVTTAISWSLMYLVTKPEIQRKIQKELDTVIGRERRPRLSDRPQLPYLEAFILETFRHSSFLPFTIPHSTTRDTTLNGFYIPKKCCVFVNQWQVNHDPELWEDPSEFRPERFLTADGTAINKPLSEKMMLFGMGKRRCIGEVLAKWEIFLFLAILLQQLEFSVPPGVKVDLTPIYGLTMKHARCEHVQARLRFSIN
Procedure: (§2) CYP (Cytochrome P450) enzymes are the major drug metabolizing enzymes present in the liver. The inhibition of CYP enzyme activity (IC50) for each of CYP1A2, CYP2C19, CYP2C9, CYP2D6, CYP3A4(BFC) and CYP3A4(BQ) is determined for compounds, where inhibition of metabolism of a known substrate leads to a decrease in the fluorescence of the metabolized product. The fluorescence of the product is monitored as a function of compound concentration. Compounds are dissolved in dimethyl sulfoxide to a concentration of 100 mM. These are diluted 1 μL into 82 μL of acetonitrile. An 11 μL aliquot of this solution is then added to 204 μL of cofactor mix (1.3% NADPH Regeneration system Solution A, 1.04% NADPH Regeneration system Solution B from BD Biosciences, 5% acetonitrile and 0.05% dimethyl sulfoxide). These are then serially diluted 1:1 (160 μL to 160 μL co-factor mix) for a total of 10 points. A 10 μL aliquot of this final mixture is dispensed into 384 well assay plates and incubated for 10 minutes at 37° C. […] Assay plates are incubated at 37° C. (CYP1A2-15 min; CYP2C9-45 min; CYP2C19, 2D6 and 3A4-30 min) and read in a Tecan Safire 2 plate reader (CYP1A2, 2C19 and 3A4 409 ex/460 em; CYP2C9 and 2D6 409 ex/530 em). The signal versus compound concentration is used to determine the IC50. The enzymes and substrates for this assay are obtained from BD Biosciences.

CYP2C19 = molecular target: T3, CYP2C19 (Homo sapiens, UniProt P33261); experiment: CYP inhibition (fluorescent substrate), CYP2C19; type: in vitro ADME; settings: substrate CEC; read-out: Cyp IC50 (μM) 2C19
T3 construct: purchased BD Biosciences
Procedure: as §2

CYP3A4(BFC) = molecular target: T4, CYP3A4(BFC) (Homo sapiens, UniProt P08684); experiment: CYP inhibition (fluorescent substrate), CYP3A4(BFC); type: in vitro ADME; settings: read-out: Cyp IC50 (μM) 3A4(BFC)
T4 construct: purchased BD Biosciences
Procedure: as §2

Raf kinases = experiment: Biochemical assay, Raf kinases as well as other kinases
Procedure: as §1

Kit, sequence (P10721 26-976, species assumed): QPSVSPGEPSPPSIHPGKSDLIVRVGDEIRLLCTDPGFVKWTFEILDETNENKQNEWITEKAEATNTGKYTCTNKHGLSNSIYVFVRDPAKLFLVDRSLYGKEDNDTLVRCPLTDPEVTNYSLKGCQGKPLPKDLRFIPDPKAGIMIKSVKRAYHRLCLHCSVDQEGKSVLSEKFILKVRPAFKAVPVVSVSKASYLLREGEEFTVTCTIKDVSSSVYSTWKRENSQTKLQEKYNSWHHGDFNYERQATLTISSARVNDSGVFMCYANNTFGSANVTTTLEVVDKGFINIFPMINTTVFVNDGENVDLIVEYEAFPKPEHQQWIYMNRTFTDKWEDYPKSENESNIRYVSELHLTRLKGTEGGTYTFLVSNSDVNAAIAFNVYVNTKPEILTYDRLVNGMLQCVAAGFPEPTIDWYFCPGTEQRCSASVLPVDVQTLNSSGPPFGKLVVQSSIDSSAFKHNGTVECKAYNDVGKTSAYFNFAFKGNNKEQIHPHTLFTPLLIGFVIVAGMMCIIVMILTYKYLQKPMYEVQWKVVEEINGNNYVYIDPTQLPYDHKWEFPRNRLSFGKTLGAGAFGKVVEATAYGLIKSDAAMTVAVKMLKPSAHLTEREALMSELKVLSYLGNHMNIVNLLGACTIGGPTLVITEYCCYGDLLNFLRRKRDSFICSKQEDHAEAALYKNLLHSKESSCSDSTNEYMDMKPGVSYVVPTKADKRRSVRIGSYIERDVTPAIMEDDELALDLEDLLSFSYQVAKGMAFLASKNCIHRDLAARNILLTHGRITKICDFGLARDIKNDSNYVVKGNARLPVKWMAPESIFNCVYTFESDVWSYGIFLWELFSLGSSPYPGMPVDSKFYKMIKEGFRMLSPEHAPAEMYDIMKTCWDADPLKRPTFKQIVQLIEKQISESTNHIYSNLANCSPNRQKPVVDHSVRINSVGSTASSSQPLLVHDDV
Src, sequence (P12931 whole entry, species assumed): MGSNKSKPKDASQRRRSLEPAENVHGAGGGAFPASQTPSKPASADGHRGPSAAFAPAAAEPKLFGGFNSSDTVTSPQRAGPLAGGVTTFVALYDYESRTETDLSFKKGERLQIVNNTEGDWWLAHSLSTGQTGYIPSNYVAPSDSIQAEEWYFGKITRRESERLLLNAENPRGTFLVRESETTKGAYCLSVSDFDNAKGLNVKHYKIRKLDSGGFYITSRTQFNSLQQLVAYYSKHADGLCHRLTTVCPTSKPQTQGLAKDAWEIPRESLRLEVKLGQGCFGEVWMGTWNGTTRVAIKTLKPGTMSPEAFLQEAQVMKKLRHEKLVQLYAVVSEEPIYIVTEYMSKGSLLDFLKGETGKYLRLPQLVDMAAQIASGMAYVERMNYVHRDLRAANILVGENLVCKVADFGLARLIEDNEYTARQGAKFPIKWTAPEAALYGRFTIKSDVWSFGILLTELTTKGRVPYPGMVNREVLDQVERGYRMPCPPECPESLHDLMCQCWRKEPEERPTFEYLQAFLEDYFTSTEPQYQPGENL
T3 sequence (P33261 whole entry): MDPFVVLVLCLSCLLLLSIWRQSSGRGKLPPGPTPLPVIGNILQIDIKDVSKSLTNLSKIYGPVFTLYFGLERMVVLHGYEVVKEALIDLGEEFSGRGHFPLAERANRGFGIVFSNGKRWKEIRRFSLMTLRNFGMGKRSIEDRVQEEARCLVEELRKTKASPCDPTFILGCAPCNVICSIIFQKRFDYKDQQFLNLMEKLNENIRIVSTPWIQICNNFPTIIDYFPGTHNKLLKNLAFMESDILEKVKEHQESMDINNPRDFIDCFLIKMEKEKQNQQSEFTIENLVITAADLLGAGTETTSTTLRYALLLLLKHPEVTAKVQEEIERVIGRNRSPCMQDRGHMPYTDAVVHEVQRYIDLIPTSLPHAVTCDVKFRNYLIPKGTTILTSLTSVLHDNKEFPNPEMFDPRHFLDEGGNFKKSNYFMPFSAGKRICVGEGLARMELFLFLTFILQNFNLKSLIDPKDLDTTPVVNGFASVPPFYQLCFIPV
T1 sequence (P15056 whole entry V600E): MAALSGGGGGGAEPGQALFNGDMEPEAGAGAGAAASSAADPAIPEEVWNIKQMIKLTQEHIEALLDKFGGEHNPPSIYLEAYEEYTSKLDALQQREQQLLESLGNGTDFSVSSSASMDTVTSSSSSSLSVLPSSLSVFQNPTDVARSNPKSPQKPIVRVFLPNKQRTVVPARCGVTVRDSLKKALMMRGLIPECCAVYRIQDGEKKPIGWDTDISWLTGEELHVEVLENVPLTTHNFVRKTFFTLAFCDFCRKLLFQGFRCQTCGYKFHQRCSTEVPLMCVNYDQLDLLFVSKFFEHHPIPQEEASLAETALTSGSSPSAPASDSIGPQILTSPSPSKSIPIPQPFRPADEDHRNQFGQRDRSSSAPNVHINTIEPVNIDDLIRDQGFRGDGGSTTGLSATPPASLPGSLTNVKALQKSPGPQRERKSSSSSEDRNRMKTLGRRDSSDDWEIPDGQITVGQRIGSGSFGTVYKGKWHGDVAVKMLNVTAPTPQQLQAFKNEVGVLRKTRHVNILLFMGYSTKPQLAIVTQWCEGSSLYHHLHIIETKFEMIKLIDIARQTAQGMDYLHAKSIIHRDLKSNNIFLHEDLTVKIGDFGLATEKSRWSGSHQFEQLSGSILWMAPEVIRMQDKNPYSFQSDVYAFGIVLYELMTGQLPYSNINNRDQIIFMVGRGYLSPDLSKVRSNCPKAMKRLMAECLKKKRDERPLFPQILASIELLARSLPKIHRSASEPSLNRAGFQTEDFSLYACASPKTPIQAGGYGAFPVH
T4 sequence (P08684 whole entry): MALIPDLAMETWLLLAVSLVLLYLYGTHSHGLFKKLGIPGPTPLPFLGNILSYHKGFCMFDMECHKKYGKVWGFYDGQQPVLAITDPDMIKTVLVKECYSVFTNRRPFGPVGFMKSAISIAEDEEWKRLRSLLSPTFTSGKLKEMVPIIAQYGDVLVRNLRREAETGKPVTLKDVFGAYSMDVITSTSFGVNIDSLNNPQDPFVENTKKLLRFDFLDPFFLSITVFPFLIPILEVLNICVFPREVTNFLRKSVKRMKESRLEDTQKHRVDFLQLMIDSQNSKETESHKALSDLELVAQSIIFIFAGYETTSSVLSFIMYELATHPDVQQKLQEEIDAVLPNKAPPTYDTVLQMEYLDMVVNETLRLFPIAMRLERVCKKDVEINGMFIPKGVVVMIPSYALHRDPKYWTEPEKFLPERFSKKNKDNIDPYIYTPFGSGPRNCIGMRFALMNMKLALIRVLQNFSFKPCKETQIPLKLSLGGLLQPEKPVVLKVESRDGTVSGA
Btk, sequence (Q06187 whole entry, species assumed): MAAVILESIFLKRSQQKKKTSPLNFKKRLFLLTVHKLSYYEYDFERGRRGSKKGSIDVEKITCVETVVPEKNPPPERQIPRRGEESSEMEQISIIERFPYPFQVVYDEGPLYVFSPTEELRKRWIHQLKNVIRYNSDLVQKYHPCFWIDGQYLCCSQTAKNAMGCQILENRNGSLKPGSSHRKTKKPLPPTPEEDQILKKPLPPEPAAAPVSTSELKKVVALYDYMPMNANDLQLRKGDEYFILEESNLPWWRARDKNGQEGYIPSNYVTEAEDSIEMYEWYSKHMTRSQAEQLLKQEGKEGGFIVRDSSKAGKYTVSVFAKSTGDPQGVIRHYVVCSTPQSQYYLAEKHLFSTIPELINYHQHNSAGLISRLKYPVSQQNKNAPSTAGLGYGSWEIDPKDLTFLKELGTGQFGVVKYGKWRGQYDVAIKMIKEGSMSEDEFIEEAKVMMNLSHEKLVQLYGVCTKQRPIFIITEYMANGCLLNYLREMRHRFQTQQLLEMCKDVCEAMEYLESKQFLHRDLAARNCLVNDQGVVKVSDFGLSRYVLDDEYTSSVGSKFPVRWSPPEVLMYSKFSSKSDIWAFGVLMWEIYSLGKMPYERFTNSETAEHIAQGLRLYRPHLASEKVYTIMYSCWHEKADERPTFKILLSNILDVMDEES

Row | Compound | IC50 (B-Raf V600E) [µM] | Kinase having IC50 of >1 μM (Kit) | Kinase having IC50 of <1 μM (Src) | Kinase having IC50 of >1 μM (Btk) | IC50 (CYP1A2) [µM] | IC50 (CYP2C19) [µM] | IC50 (CYP3A4(BFC)) [µM] | Selectivity of inhibitory activity, Raf kinases versus other kinases (Raf kinases) | Kinase having IC50 of >1 μM (Src) | Kinase having IC50 of <1 μM (Kit; listing of the kinase means IC50 <1 μM)
1 | N#Cc1cnc2[nH]cc(C(=O)c3c(F)ccc(NS(=O)(=O)c4cccc(F)c4)c3F)c2c1 [Compound P-0005, N-[3-(5-cyano-1H-pyrrolo[2,3-b]pyridine-3-carbonyl)-2,4-difluoro-phenyl]-3-fluoro-benzenesulfonamide] | < 0.01 | Kit | Src | Btk | > 10 | > 10 | > 10 | selective activity to the Raf kinases |  | 
2 | CCCS(=O)(=O)Nc1ccc(F)c(C(=O)c2c[nH]c3ncc(C#N)cc23)c1F [Compound P-0002, propane-1-sulfonic acid [3-(5-cyano-1H-pyrrolo[2,3-b]pyridine-3-carbonyl)-2,4-difluoro-phenyl]-amide] | < 0.01 | Kit |  | Btk | > 10 | 5 to 10 | > 10 | selective activity to the Raf kinases | Src | 
3 | CCCS(=O)(=O)Nc1ccc(F)c(C(=O)c2c[nH]c3ncc(-c4cnc(OC)nc4)cc23)c1F [Compound P-0001, propane-1-sulfonic acid {2,4-difluoro-3-[5-(2-methoxy-pyrimidin-5-yl)-1H-pyrrolo[2,3-b]pyridine-3-carbonyl]-phenyl}-amide] | < 0.01 | Kit |  | Btk | > 10 | > 10 | > 10 | selective activity to the Raf kinases | Src | 
4 | CN(C)S(=O)(=O)Nc1ccc(F)c(C(=O)c2c[nH]c3ncc(C#N)cc23)c1F [Compound P-0007, N,N-dimethylamino-sulfonic acid [3-(5-cyano-1H-pyrrolo[2,3-b]pyridine-3-carbonyl)-2,4-difluoro-phenyl]-amide] | < 0.01 | Kit |  | Btk | > 10 | > 10 | 5 to 10 | selective activity to the Raf kinases | Src | 
5 | N#Cc1cnc2[nH]cc(C(=O)c3c(F)ccc(NS(=O)(=O)N4CCCC4)c3F)c2c1 [Compound P-0006, pyrrolidine-1-sulfonic acid [3-(5-cyano-1H-pyrrolo[2,3-b]pyridine-3-carbonyl)-2,4-difluoro-phenyl]-amide] | < 0.01 | Kit |  | Btk | > 10 | > 10 | > 10 | selective activity to the Raf kinases | Src | 
6 | CCCS(=O)(=O)Nc1cccc(C(=O)c2c[nH]c3ncc(C#N)cc23)c1F [Compound P-0003, propane-1-sulfonic acid [3-(5-cyano-1H-pyrrolo[2,3-b]pyridine-3-carbonyl)-2-fluoro-phenyl]-amide] | ~0.1 | Kit |  | Btk | > 10 | > 10 | > 10 | selective activity to the Raf kinases | Src | 
7 | N#Cc1cnc2[nH]cc(C(=O)c3c(F)ccc(NS(=O)(=O)c4cc(F)ccc4F)c3F)c2c1 [Compound P-0004, N-[3-(5-cyano-1H-pyrrolo[2,3-b]pyridine-3-carbonyl)-2,4-difluoro-phenyl]-2,5-difluoro-benzenesulfonamide] | < 0.01 |  | Src | Btk | > 10 | > 10 | 5 to 10 | selective activity to the Raf kinases |  | Kit
